Laboratory results from ChEMBL document CHEMBL3885861, “Open TG-GATES”.

Species: Rattus norvegicus
Assay: Open TG-GATES - Regimen: Daily Repeat
Assay type: toxicity, organism-based, Sprague-Dawley
Design: regimen Daily Repeat, gender Male, age 6 weeks
Details: in vivo, po, 150 mg/kg, route gavage, dose level High; for APTT / Bas / Eos / Fbg / Hb / Ht / Lym / MCH / MCHC / MCV / Mono / Neu / PT / Plat / RBC / Ret / WBC: tissue Blood; for KIDNEY_L / KIDNEY_R / KIDNEY_TOTAL: tissue Kidney; for LIVER: tissue Liver; for A/G / ALP / ALT / AST / BUN / CRE / Ca / Cl / DBIL / GLC / IP / K / LDH / Na / PL / RALB / TBIL / TC / TG / TP / gamma-GTP: tissue Plasma

Nc1nc(N)c2nc(-c3ccccc3)c(N)nc2n1
TERMINAL_BW (72 h, time 3 day): 243.7 g | APTT (72 h, time 3 day): 16.1 s | Bas (72 h, time 3 day): 0% | Eos (72 h, time 3 day): 1% | Fbg (72 h, time 3 day): 366.6 mg/dL | Hb (72 h, time 3 day): 13.8 g/dL | Ht (72 h, time 3 day): 40.7% | Lym (72 h, time 3 day): 76.6% | MCH (72 h, time 3 day): 21 pg | MCHC (72 h, time 3 day): 33.8% | MCV (72 h, time 3 day): 62 fL | Mono (72 h, time 3 day): 2.8% | Neu (72 h, time 3 day): 18.8% | PT (72 h, time 3 day): 14 s | Plat (72 h, time 3 day): 131.8 x10_4/uL | RBC (72 h, time 3 day): 657.6 x10_4/ul | Ret (72 h, time 3 day): 5.1% | WBC (72 h, time 3 day): 90.9 x10_2/uL | KIDNEY_L (72 h, time 3 day): 1 g | KIDNEY_R (72 h, time 3 day): 1.1 g | KIDNEY_TOTAL (72 h, time 3 day): 2.1 g | LIVER (72 h, time 3 day): 11.3 g | A/G (72 h, time 3 day): 0.9 | ALP (72 h, time 3 day): 1846.8 IU/L | ALT (72 h, time 3 day): 44 IU/L | AST (72 h, time 3 day): 67.2 IU/L | BUN (72 h, time 3 day): 17.6 mg/dL | CRE (72 h, time 3 day): 0.2 mg/dL | Ca (72 h, time 3 day): 11.1 mg/dL | Cl (72 h, time 3 day): 105.8 meq/L | DBIL (72 h, time 3 day): 0.008 mg/dL | GLC (72 h, time 3 day): 180.6 mg/dL | IP (72 h, time 3 day): 7.9 mg/dL | K (72 h, time 3 day): 3.9 meq/L | LDH (72 h, time 3 day): 59 IU/L | Na (72 h, time 3 day): 143.6 meq/L | PL (72 h, time 3 day): 171 mg/dL | RALB (72 h, time 3 day): 2.6 g/dL | TBIL (72 h, time 3 day): 0.032 mg/dL | TC (72 h, time 3 day): 90.6 mg/dL | TG (72 h, time 3 day): 120.8 mg/dL | TP (72 h, time 3 day): 5.6 g/dL | gamma-GTP (72 h, time 3 day): 1 IU/L | TERMINAL_BW ([…], time 7 day): 274.8 g | TERMINAL_BW ([…], time 14 day): 323.6 g | TERMINAL_BW ([…], time 28 day): 378.7 g | APTT ([…], time 7 day): 16.4 s | Bas ([…], time 7 day): 0.2% | Eos ([…], time 7 day): 1% | Fbg ([…], time 7 day): 354.2 mg/dL | Hb ([…], time 7 day): 13.5 g/dL | Ht ([…], time 7 day): 41.1% | Lym ([…], time 7 day): 78.2% | MCH ([…], time 7 day): 20.1 pg | MCHC ([…], time 7 day): 32.8% | MCV ([…], time 7 day): 61.2 fL | Mono ([…], time 7 day): 2.4% | Neu ([…], time 7 day): 18.2% | PT ([…], time 7 day): 14.1 s | Plat ([…], time 7 day): 132.7 x10_4/uL | RBC ([…], time 7 day): 672.4 x10_4/ul | Ret ([…], time 7 day): 5.4% | WBC ([…], time 7 day): 114.8 x10_2/uL | APTT ([…], time 14 day): 20.2 s | Bas ([…], time 14 day): 0% | Eos ([…], time 14 day): 1% | Fbg ([…], time 14 day): 329.6 mg/dL | Hb ([…], time 14 day): 14.2 g/dL | Ht ([…], time 14 day): 43.2% | Lym ([…], time 14 day): 77.4% | MCH ([…], time 14 day): 19.5 pg | MCHC ([…], time 14 day): 33% | MCV ([…], time 14 day): 59.1 fL | Mono ([…], time 14 day): 2.2% | Neu ([…], time 14 day): 18.8% | PT ([…], time 14 day): 13 s | Plat ([…], time 14 day): 113.5 x10_4/uL | RBC ([…], time 14 day): 730.6 x10_4/ul | Ret ([…], time 14 day): 3.3% | WBC ([…], time 14 day): 94.3 x10_2/uL | APTT ([…], time 28 day): 18.6 s | Bas ([…], time 28 day): 0.4% | Eos ([…], time 28 day): 1% | Fbg ([…], time 28 day): 320 mg/dL | Hb ([…], time 28 day): 15 g/dL | Ht ([…], time 28 day): 44.1% | Lym ([…], time 28 day): 78.8% | MCH ([…], time 28 day): 18.6 pg | MCHC ([…], time 28 day): 33.9% | MCV ([…], time 28 day): 54.9 fL | Mono ([…], time 28 day): 2.2% | Neu ([…], time 28 day): 16.8% | PT ([…], time 28 day): 13.3 s | Plat ([…], time 28 day): 127.8 x10_4/uL | RBC ([…], time 28 day): 803.2 x10_4/ul | Ret ([…], time 28 day): 2.1% | WBC ([…], time 28 day): 110.6 x10_2/uL | KIDNEY_L ([…], time 7 day): 1.3 g | KIDNEY_R ([…], time 7 day): 1.3 g | KIDNEY_TOTAL ([…], time 7 day): 2.6 g | KIDNEY_L ([…], time 14 day): 1.4 g | KIDNEY_R ([…], time 14 day): 1.4 g | KIDNEY_TOTAL ([…], time 14 day): 2.8 g | KIDNEY_L ([…], time 28 day): 1.7 g | KIDNEY_R ([…], time 28 day): 1.7 g | KIDNEY_TOTAL ([…], time 28 day): 3.4 g | LIVER ([…], time 7 day): 12.6 g | LIVER ([…], time 14 day): 13.2 g | LIVER ([…], time 28 day): 14.1 g | A/G ([…], time 7 day): 0.9 | ALP ([…], time 7 day): 1286 IU/L | ALT ([…], time 7 day): 41.2 IU/L | AST ([…], time 7 day): 63.2 IU/L | BUN ([…], time 7 day): 18.8 mg/dL | CRE ([…], time 7 day): 0.2 mg/dL | Ca ([…], time 7 day): 11 mg/dL | Cl ([…], time 7 day): 104.2 meq/L | DBIL ([…], time 7 day): 0.014 mg/dL | GLC ([…], time 7 day): 188 mg/dL | IP ([…], time 7 day): 7.7 mg/dL | K ([…], time 7 day): 4 meq/L | LDH ([…], time 7 day): 62 IU/L | Na ([…], time 7 day): 143 meq/L | PL ([…], time 7 day): 149.6 mg/dL | RALB ([…], time 7 day): 2.6 g/dL | TBIL ([…], time 7 day): 0.072 mg/dL | TC ([…], time 7 day): 77 mg/dL | TG ([…], time 7 day): 126.8 mg/dL | TP ([…], time 7 day): 5.6 g/dL | gamma-GTP ([…], time 7 day): 1.2 IU/L | A/G ([…], time 14 day): 0.8 | ALP ([…], time 14 day): 1273.4 IU/L | ALT ([…], time 14 day): 41.6 IU/L | AST ([…], time 14 day): 66.4 IU/L | BUN ([…], time 14 day): 21.4 mg/dL | CRE ([…], time 14 day): 0.3 mg/dL | Ca ([…], time 14 day): 10.4 mg/dL | Cl ([…], time 14 day): 105.8 meq/L | DBIL ([…], time 14 day): 0.012 mg/dL | GLC ([…], time 14 day): 185.2 mg/dL | IP ([…], time 14 day): 7.5 mg/dL | K ([…], time 14 day): 3.7 meq/L | LDH ([…], time 14 day): 58.2 IU/L | Na ([…], time 14 day): 145 meq/L | PL ([…], time 14 day): 143.2 mg/dL | RALB ([…], time 14 day): 2.7 g/dL | TBIL ([…], time 14 day): 0.07 mg/dL | TC ([…], time 14 day): 75 mg/dL | TG ([…], time 14 day): 101.6 mg/dL | TP ([…], time 14 day): 5.9 g/dL | gamma-GTP ([…], time 14 day): 1.2 IU/L | A/G ([…], time 28 day): 0.8 | ALP ([…], time 28 day): 1120 IU/L | ALT ([…], time 28 day): 41.8 IU/L | AST ([…], time 28 day): 65.6 IU/L | BUN ([…], time 28 day): 21.4 mg/dL | CRE ([…], time 28 day): 0.3 mg/dL | Ca ([…], time 28 day): 10.7 mg/dL | Cl ([…], time 28 day): 106 meq/L | DBIL ([…], time 28 day): 0.008 mg/dL | GLC ([…], time 28 day): 178.2 mg/dL | IP ([…], time 28 day): 6.7 mg/dL | K ([…], time 28 day): 3.7 meq/L | LDH ([…], time 28 day): 44.6 IU/L | Na ([…], time 28 day): 144.8 meq/L | PL ([…], time 28 day): 160.4 mg/dL | RALB ([…], time 28 day): 2.7 g/dL | TBIL ([…], time 28 day): 0.064 mg/dL | TC ([…], time 28 day): 85.2 mg/dL | TG ([…], time 28 day): 106.2 mg/dL | TP ([…], time 28 day): 6.1 g/dL | gamma-GTP ([…], time 28 day): 1.4 IU/L
